Laboratory results published in PMC1310925, “Organotins Disrupt the 11β-Hydroxysteroid Dehydrogenase Type 2–Dependent Local Inactivation of Glucocorticoids” (Environmental Health Perspectives, 2005).

Legend:
[1] = biological target: T1, 11β-HSD2 (Homo sapiens, UniProt P80365); conditions: endogenous enzyme, intact cells
T1 sequence (P80365 1-405): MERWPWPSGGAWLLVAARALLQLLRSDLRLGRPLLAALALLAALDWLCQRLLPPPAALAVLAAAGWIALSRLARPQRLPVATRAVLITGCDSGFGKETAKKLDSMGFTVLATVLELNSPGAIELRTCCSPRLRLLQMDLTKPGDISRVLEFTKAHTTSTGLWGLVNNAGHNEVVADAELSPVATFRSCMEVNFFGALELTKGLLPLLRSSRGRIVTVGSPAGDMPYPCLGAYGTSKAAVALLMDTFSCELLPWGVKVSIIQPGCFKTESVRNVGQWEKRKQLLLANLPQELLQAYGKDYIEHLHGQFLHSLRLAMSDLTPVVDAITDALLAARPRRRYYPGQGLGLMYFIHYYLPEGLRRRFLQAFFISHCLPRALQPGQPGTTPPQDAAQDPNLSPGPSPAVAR
Procedure: (§1) SW-620 (human colorectal adenocarcinoma) cells and JEG-3 (human choriocarcinoma) cells were cultured according to the recommendations of the supplier (American Type Culture Collection, Manassas, VA, USA).
(§2) HEK-293 cells stably transfected with 11β-HSD2 (25,000 cells per well) were seeded 24 hr prior to the assay in poly-D-lysine coated 96-well Biocoat plates (Becton Dickinson, Basel, Switzerland). The medium was carefully removed, followed by the addition of 30 μL fresh medium, 10 μL medium containing various concentrations of organotins, and 10 μL radiolabeled cortisol. The reaction volume was 50 μL, with a final cortisol concentration of 40 nM. The cells were incubated for 2 hr at 37°C under 5% CO2. We stopped reactions by adding an excess of unlabeled cortisone and cortisol in methanol, and separated steroids using thin-layer chromatography, followed by scintillation counting. 11β-HSD2 activity in JEG-3, SW-620, and RCCD-2 cells was measured similarly by adjusting the cell density and reaction time to obtain a maximal conversion of cortisol between 15 and 25%.

[2] = biological target: 11β-HSD2 (Rattus norvegicus, UniProt P50233)
11β-HSD2 (Rattus norvegicus, UniProt P50233), sequence (P50233 whole entry): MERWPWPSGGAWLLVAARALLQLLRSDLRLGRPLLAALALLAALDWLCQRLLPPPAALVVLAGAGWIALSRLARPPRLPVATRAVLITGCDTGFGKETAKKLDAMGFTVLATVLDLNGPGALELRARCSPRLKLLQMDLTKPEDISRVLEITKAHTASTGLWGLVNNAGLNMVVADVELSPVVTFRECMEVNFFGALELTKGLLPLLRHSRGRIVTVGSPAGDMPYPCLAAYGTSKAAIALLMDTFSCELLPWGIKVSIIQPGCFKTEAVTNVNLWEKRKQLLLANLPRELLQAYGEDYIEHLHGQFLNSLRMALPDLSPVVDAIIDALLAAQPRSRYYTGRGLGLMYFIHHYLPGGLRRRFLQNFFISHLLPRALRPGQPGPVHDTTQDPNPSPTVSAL
Procedure: as §1, §2

[3] = ref McVey and Cooke 2003; cited from earlier work
[4] = biological target: 11β-HSD2 Cys^48Ser (Homo sapiens, UniProt P80365, C48S); conditions: read-out: TBT IC50 ± SD, Cys^48Ser; mutant Cys^48Ser, lysate
11β-HSD2 Cys^48Ser, sequence (P80365 whole entry C48S): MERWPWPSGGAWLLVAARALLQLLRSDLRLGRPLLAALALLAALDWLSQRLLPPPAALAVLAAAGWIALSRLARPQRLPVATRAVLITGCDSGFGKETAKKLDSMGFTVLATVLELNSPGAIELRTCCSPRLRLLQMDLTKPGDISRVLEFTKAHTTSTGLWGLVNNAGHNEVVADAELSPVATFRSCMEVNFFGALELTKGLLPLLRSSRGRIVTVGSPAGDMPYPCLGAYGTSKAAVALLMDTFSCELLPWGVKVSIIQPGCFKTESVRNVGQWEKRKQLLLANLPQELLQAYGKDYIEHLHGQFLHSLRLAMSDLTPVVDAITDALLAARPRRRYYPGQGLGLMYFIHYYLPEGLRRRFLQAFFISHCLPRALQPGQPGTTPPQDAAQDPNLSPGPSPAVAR
Procedure: (§3) Cells were rinsed 3 times with phosphate-buffered saline (PBS) and resuspended in 2 mL ice-cold buffer TS2 (100 mM NaCl, 1 mM EGTA, 1 mM EDTA, 1 mM MgCl2, 250 mM sucrose, 20 mM Tris-HCl, pH 7.4). […] For determinationof 11β-HSD2 activity, aliquots were thawed, sonicated, and diluted 1:12 in buffer TS2 (4°C). We carried out reactions in a final volume of 20 μL containing 10 nCi [1,2,6,7-^3H]-cortisol, 400-μM NAD^+, and different concentrations of unlabeled cortisol. […] Incubations were for 10 min at 37°C.
(§4) All constructs were verified by sequencing and recloned into pcDNA3 expression vector. Wild-type and mutant enzymes were expressed in HEK-293 cells, lysates were prepared, and proteins were separated by sodium dodecyl sulfate (SDS) gel electrophoresis. Proteins were transferred to nitrocellulose, and expression levels of 11β-HSD2 constructs were detected using mouse monoclonal antibody M2 raised against the FLAG epitope and visualized with a horseradish peroxidase conjugated anti-mouse antibody and enhanced chemiluminescence Western kit (Pierce, Rockford, IL, USA). After detection of 11β-HSD2 constructs, nitrocellulose membranes were stripped and incubated with rabbit polyclonal anti-actin IgG (Santa Cruz Biotechnology Inc., Santa Cruz, CA, USA) and horseradish peroxidase–conjugated goat anti-rabbit IgG to adjust for the amount of proteins loaded on the gel. The expression of mutant relative to wild-type enzyme was adjusted for calculation of kinetic parameters.

[5] = biological target: 11β-HSD2 Cys^264Ser (Homo sapiens, UniProt P80365, C264S); conditions: lysate
11β-HSD2 Cys^264Ser, sequence (P80365 whole entry C264S): as the sequence (P80365 whole entry C48S) above, with S48C, C264S counted along it
Procedure: as §3, §4

[6] = biological target: 11β-HSD2 Cys^127Ser (Homo sapiens, UniProt P80365, C127S); conditions: read-out: TBT IC50 ± SD, Cys^127Ser; mutant Cys^127Ser, lysate
11β-HSD2 Cys^127Ser, sequence (P80365 whole entry C127S): as the sequence (P80365 whole entry C48S) above, with S48C, C127S counted along it
Procedure: as §3, §4

[7] = biological target: 11β-HSD2 Cys^248Ser (Homo sapiens, UniProt P80365, C248S); conditions: read-out: TBT IC50 ± SD, Cys^248Ser; mutant Cys^248Ser, lysate
11β-HSD2 Cys^248Ser, sequence (P80365 whole entry C248S): as the sequence (P80365 whole entry C48S) above, with S48C, C248S counted along it
Procedure: as §3, §4

[8] = biological target: 11β-HSD2 Cys^371Ser (Homo sapiens, UniProt P80365, C371S); conditions: read-out: TBT IC50 ± SD, Cys^371Ser; mutant Cys^371Ser, lysate
11β-HSD2 Cys^371Ser, sequence (P80365 whole entry C371S): as the sequence (P80365 whole entry C48S) above, with S48C, C371S counted along it
Procedure: as §3, §4

[9] = biological target: 11β-HSD2 Cys^128Ser (Homo sapiens, UniProt P80365, C128S); conditions: read-out: TBT IC50 ± SD, Cys^128Ser; mutant Cys^128Ser, lysate
11β-HSD2 Cys^128Ser, sequence (P80365 whole entry C128S): as the sequence (P80365 whole entry C48S) above, with S48C, C128S counted along it
Procedure: as §3, §4

[10] = biological target: 11β-HSD2 Cys^188Ser (Homo sapiens, UniProt P80365, C188S); conditions: read-out: TBT IC50 ± SD, Cys^188Ser; mutant Cys^188Ser, lysate
11β-HSD2 Cys^188Ser, sequence (P80365 whole entry C188S): as the sequence (P80365 whole entry C48S) above, with S48C, C188S counted along it
Procedure: as §3, §4

[11] = biological target: T2, 17β-HSD2 (Homo sapiens, UniProt P37059); assay: 17β-HSD2 activity in cell lysates (estradiol to estrone); type: biochemical; conditions: for IC50: lysates of transfected HEK-293 cells, 200 nM estradiol, NAD+, read-out: IC50 17β-HSD2, cell lysate
T2 construct: expressed in transfected cells; host or cells: HEK-293, calcium-phosphate transfection, lysate
T2 sequence (P37059 1-387): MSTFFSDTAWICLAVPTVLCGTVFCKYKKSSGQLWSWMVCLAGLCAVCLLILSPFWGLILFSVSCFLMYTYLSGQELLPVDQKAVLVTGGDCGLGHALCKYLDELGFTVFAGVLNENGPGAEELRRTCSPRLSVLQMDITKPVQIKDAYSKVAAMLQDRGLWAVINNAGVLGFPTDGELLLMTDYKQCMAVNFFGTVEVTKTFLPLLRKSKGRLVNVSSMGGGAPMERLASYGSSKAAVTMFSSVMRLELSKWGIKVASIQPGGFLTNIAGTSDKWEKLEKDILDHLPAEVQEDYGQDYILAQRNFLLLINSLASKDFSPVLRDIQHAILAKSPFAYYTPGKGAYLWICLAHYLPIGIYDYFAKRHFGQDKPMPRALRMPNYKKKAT
Procedure: (§5) For determination of 11β-HSD1, 17β-HSD1, and 17β-HSD2 activity, HEK-293 cells transfected by the calcium-phosphate precipitation method were harvested 48 hr later, washed with PBS, and centrifuged for 3 min at 150 × g. Supernatants were removed, cell pellets quick-frozen in a dry ice ethanol bath, and stored at −70°C. For assaying 11β-HSD1, we dissolved pellets in TS2 buffer; for 17β-HSD1 or 17β-HSD2, we used a buffer containing 50 mM potassium phosphate, 20% glycerol, and 1 mM EDTA. We measured 11β-HSD1 oxoreductase activity as described recently ([Atanasov et al. 2004]), using radiolabeled cortisone as substrate. 17β-HSD1 and 17β-HSD2 activities were measured in the presence of radiolabeled estrone or estradiol and unlabeled steroid at final concentrations of 200 nM and 500 μM NADPH or NAD^+, respectively.

[12] = biological target: T1, 11β-HSD2; assay: 11β-HSD2 activity in lysates of stably transfected HEK-293 cells (cortisol to cortisone); type: biochemical; parameters: expressed in transfected cells; host or cells: HEK-293, stably transfected; conditions: for Vmax of 11β-HSD2 in presence of inhibitor: control 2.14 ± 0.32
Procedure: Cells were rinsed 3 times with phosphate-buffered saline (PBS) and resuspended in 2 mL ice-cold buffer TS2 (100 mM NaCl, 1 mM EGTA, 1 mM EDTA, 1 mM MgCl2, 250 mM sucrose, 20 mM Tris-HCl, pH 7.4). Aliquots of the cell suspension were frozen at −20°C, retaining full enzymatic activity for at least 3 months. For determinationof 11β-HSD2 activity, aliquots were thawed, sonicated, and diluted 1:12 in buffer TS2 (4°C). We carried out reactions in a final volume of 20 μL containing 10 nCi [1,2,6,7-^3H]-cortisol, 400-μM NAD^+, and different concentrations of unlabeled cortisol. […] Incubations were for 10 min at 37°C.

[13] = biological target: T1, 11β-HSD2; assay: 11β-HSD2 activity in intact stably transfected HEK-293 cells; type: cell-based; parameters: expressed in transfected cells; host or cells: HEK-293, stably transfected; conditions: for IC50: HEK-293 stably transfected, 40 nM cortisol, 2 hr; for 11β-HSD2 activity in intact cells, compound alone: concentrations 50% below their IC50 value
[14] = biological target: T3, 11β-HSD1 (Homo sapiens, UniProt P28845); assay: 11β-HSD1 oxoreductase activity in cell lysates (cortisone to cortisol); type: biochemical; conditions: for inhibition of 11β-HSD1-dependent conversion of cortisone to cortisol: concentrations up to 200 μM, lysate; for IC50: lysates of transfected HEK-293 cells, cortisone as substrate, read-out: IC50 11β-HSD1, cell lysate
T3 construct: expressed in transfected cells; host or cells: HEK-293, calcium-phosphate transfection, lysate
T3 sequence (P28845 whole entry): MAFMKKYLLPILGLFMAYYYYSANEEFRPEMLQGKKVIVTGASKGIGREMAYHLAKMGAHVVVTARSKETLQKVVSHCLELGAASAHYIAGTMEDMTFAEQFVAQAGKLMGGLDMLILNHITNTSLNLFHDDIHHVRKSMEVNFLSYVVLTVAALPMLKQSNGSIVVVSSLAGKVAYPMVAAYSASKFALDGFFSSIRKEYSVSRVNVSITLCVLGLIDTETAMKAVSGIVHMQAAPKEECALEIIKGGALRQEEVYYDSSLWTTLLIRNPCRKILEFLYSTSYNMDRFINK
Procedure: as §5

[15] = biological target: T4, 17β-HSD1 (Homo sapiens, UniProt P14061); assay: 17β-HSD1 activity in cell lysates (estrone to estradiol); type: biochemical; conditions: for inhibition of 17β-HSD1: lysate; for IC50: lysates of transfected HEK-293 cells, 200 nM estrone, NADPH, read-out: IC50 17β-HSD1, cell lysate
T4 construct: expressed in transfected cells; host or cells: HEK-293, calcium-phosphate transfection, lysate
T4 sequence (P14061 1-328): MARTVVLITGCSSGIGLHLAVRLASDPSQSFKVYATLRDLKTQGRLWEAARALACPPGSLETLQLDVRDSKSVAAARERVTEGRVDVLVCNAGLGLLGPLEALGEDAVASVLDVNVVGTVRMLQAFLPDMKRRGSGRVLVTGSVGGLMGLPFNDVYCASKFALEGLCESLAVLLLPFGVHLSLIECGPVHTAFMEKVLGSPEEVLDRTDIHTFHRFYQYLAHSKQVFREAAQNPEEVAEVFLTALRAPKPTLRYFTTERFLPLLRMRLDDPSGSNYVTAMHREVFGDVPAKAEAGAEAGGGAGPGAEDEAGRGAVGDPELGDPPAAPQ
Procedure: as §5

[16] = 40 nM cortisol, 400 μM NAD+, 10 min 37°C, read-out: IC50 11β-HSD2, cell lysate

CCC[CH2][Sn]([CH2]CCC)[CH2]CCC [TBT, tributyltin]
inhibition of 11β-HSD2 in SW-620 cells compared with HEK-293 cells ([1]; colon-derived): highly similar to that observed in HEK-293 cells
inhibition of 11β-HSD2 in JEG-3 cells compared with HEK-293 cells ([1]; placenta-derived): highly similar to that observed in HEK-293 cells
stronger inhibition in RCCD-2 cells than in HEK-293 cells ([2]; intact cells): approximately 2 fold
IC50 ([2]; read-out: IC50 11β-HSD2 in intact RCCD-2 cells, endogenous enzyme, rat renal cortical collecting duct cells): 830 ± 230 nM
toxic daily intake [3]: 0.25 μg/kg body weight
IC50 [4]: 2110 ± 330 nM
increase in IC50 with Cys^264Ser versus wild-type [5]: 2 fold
IC50 ([5]; read-out: TBT IC50 ± SD, Cys^264Ser, mutant Cys^264Ser): 4200 ± 440 nM
IC50 [6]: 2230 ± 330 nM
IC50 [7]: 2070 ± 470 nM
IC50 [8]: 2170 ± 500 nM
IC50 [9]: 1870 ± 530 nM
IC50 [10]: 1950 ± 380 nM
IC50 [11]: > 200000 nM
IC50 [12, 16]: 1900 ± 660 nM
increase of apparent Km ([12]; 2 μM TBT versus control): 2 fold
change of inhibitory effect upon preincubation ([12]; 2 μM TBT, preincubation 5 or 10 min, lysate): the changes did not reach significance
Vmax of 11β-HSD2 in presence of inhibitor ([12]; 2 μM TBT): 1.66 ± 0.40 nmol/h/mg
increase of apparent Km ([12]; 3 μM TBT versus control): 3 fold
Vmax of 11β-HSD2 in presence of inhibitor ([12]; 3 μM TBT): 1.48 ± 0.48 nmol/h/mg
effect of dilution of enzyme-inhibitor complex on relative inhibition ([12]; 2-fold and 4-fold dilution of the EI complex): proportional decrease of the relative inhibitory effect
IC50 ([12]; Table 2, wild-type enzyme, lysate, read-out: TBT IC50 ± SD, wild-type 11β-HSD2): 1900 ± 460 nM
mode of inhibition of 11β-HSD2 ([12]; from change of Km and Vmax with TBT): mixed-competitive mode of inhibition
IC50 [13]: 1520 ± 430 nM
11β-HSD2 activity in intact cells, compound alone [13]: reduced 11β-HSD2 activity only slightly
inhibition of 11β-HSD1-dependent conversion of cortisone to cortisol [14]: did not inhibit
IC50 [14]: > 200000 nM
inhibition of 17β-HSD1 [15]: neither TBT nor TPT inhibited
IC50 [15]: > 200000 nM

c1cc[c]([Sn]([c]2ccccc2)[c]2ccccc2)cc1 [TPT, triphenyltin]
IC50 for 17β-HSD2 relative to IC50 for 11β-HSD2 ([11]; lysates): 6 fold
IC50 [11]: 19000 ± 3000 nM
IC50 [12, 16]: 3190 ± 730 nM
IC50 [13]: 990 ± 240 nM
11β-HSD2 activity in intact cells, compound alone [13]: reduced 11β-HSD2 activity only slightly
inhibition of 11β-HSD1-dependent conversion of cortisone to cortisol [14]: did not inhibit
IC50 [14]: > 200000 nM
inhibition of 17β-HSD1 [15]: neither TBT nor TPT inhibited
IC50 [15]: > 200000 nM

N[C@@H](CCC(=O)N[C@@H](CS)C(=O)NCC(=O)O)C(=O)O [glutathione, reference compound]
prevention of organotin-dependent inhibition of 11β-HSD2 ([12]; not shown): not able to prevent
